Assay results reported in the NIST ThermoML archive (doi:10.1021/je100788g).
Numbers after ± are expanded uncertainties.

Columns and labels:
[1] = 313.15 K, Fluid (supercritical or subcritical phases), Vibrating tube method
[2] = xn = mol fraction of the nth substance listed; conditions: 313.15 K, Fluid (supercritical or subcritical phases), Vibrating tube method, x1 = 1

Row | mass density ([1]; 1000 kPa) | mass density ([1]; 2000 kPa) | mass density ([1]; 3000 kPa) | mass density ([1]; 4000 kPa) | mass density ([1]; 5000 kPa) | mass density ([1]; 6000 kPa) | mass density ([1]; 7000 kPa) | mass density ([1]; 8000 kPa) | mass density ([1]; 9000 kPa) | mass density ([1]; 10000 kPa) | mass density ([2]; 1000 kPa) | mass density ([2]; 2000 kPa) | mass density ([2]; 3000 kPa) | mass density ([2]; 4000 kPa) | mass density ([2]; 5000 kPa) | mass density ([2]; 6000 kPa) | mass density ([2]; 7000 kPa) | mass density ([2]; 8000 kPa) | mass density ([2]; 9000 kPa) | mass density ([2]; 10000 kPa) | SMILES
1 | 17.9 ± 0.2 kg/m3 | 37.1 ± 0.2 kg/m3 | 58.7 ± 0.2 kg/m3 | 83.5 ± 0.2 kg/m3 | 112.7 ± 0.2 kg/m3 | 148.8 ± 0.3 kg/m3 | 197.3 ± 0.3 kg/m3 | 276.7 ± 0.4 kg/m3 | 483.4 ± 0.5 kg/m3 | 627.4 ± 0.5 kg/m3 | – | – | – | – | – | – | – | – | – | – | O=C=O [carbon dioxide]
2 | – | – | – | – | – | – | – | – | – | – | 17.9 ± 0.2 kg/m3 | 37.1 ± 0.2 kg/m3 | 58.7 ± 0.2 kg/m3 | 83.5 ± 0.2 kg/m3 | 112.7 ± 0.2 kg/m3 | 148.8 ± 0.3 kg/m3 | 197.3 ± 0.3 kg/m3 | 276.7 ± 0.4 kg/m3 | 483.4 ± 0.5 kg/m3 | 627.4 ± 0.5 kg/m3 | O=C=O [carbon dioxide] + CCCCO
